Reference: patent publication US11319305B2, “Pyrimidine sulfamide derivative and preparation method and medical application thereof” (SHIJIAZHUANG SAGACITY NEW DRUG DEVELOPMENT CO., LTD., priority 2017, dated 2022)

Experiments:
[1] = Pharmacokinetics in beagle dogs; assay type: in vivo
Source text: Experimental embodiment 7: Evaluation on the pharmacokinetic of compounds in beagle dogs
Male beagle dogs were selected as the tested animals in this study, and the drug concentration in plasma of beagle dogs at different time points via intravenous injection or oral perfusion gastric administration of the test compounds was quantitatively measured using LC/MS/MS method to evaluate the pharmacokinetic characteristics of the test compounds in beagle dogs.
Beagle dog (male, 6-15 kg, more than 6 months old, Beijing Marshall Biotechnology Co., Ltd.).
A clear solution of the test compound was injected intravenously into beagle dogs (overnight fasting), or administrated orally to beagle dogs by gavage (overnight fasting). For intravenous administration, 500 μL of blood was collected from peripheral vessels at 0 hour (pre-dosing) and at 0.0833, 0.25, 0.5, 1, 2, 4, 6, 8 and 24 hours after dosing, which was then placed in an anticoagulation tube supplemented with EDTA-K2 (Suzuki Healthcare Medical Co., Ltd.). For oral gastric administration, 500 μL of blood was collected from peripheral vessels at 0 hour (pre-dosing) and at 0.25, 0.5, 1, 2, 4, 6, 8 and 24 hours after dosing, which was then placed in an anticoagulation tube supplemented with EDTA-K2. The mixture in the anticoagulation tube was vortexed to mix thoroughly, and then centrifuged at 13000 rpm for 10 minutes to collect the plasma. Plasma drug concentration was measured by LC/MS/MS method, and related pharmacokinetic parameters were calculated using WinNonlin™ Version 6.3 (Pharsight, Paul View, Calif.) pharmacokinetics software in non-room model linear logarithmic trapezoids method.

[2] = biological target: T1, bile salt transport pump (BSEP) (Homo sapiens, UniProt O95342); assay: Inhibition test on bile salt transfer pump (BSEP), taurocholic acid uptake in BSEP-Hi5-VT vesicles; assay type: in vitro ADME
T1 construct: purchased Solvo Biotechnology SB-BSEP-Hi5-VT; host or cells: Hi5 insect cells (read from the product name; own knowledge)
Procedure: Prepared with buffer A, 8.16 mM ATP and 4.08 μM taurocholic acid were contained in 12 mL buffer A.
Prepared with buffer A, 8.16 mM AMP, 4.08 μM taurocholic acid 12 mL buffer A were contained in buffer A.
A solution containing BSEP-Hi5-VT 5 μg/μL was prepared with buffer A.
The compound was diluted to 100 mM with DMSO; then serially diluted 3-fold for an 11-point dilution; the minimum concentration was 0.169 μM.
Positive reference Glyburide was diluted to 20 mM with DMSO; then serially diluted 2-fold for an 11-point dilution; the minimum concentration was 19.5
0.3 μL of a solution of the compound in DMSO or a diluted DMSO solution were transferred into corresponding wells of the compound plate using ECHO, respectively.
14.7 μL of ATP buffer was added to the compound and the corresponding wells of zero percent effect (ZPE), respectively.
14.7 μL of AMP buffer was added to the corresponding wells of 100% effect (HPE), respectively.
The plate was shaked for 10 minutes at 25° C.
15 μL of BSEP-H15-VT Vesicle solution was added to all wells, respectively, and the plate was shaked for another 40 minutes at 25° C.
6.5 μL 0.5 M ethylenediaminetetraacetic acid (EDTA) solution was added to all wells immediately, followed by addition of 65 μL of buffer B, and the whole reaction was completed.
7.95 μL of liquid was transferred to the filter plate from the compound plate at the end of the reaction using an instrument.
After placing the liquid receiving plate under the filter plate, the liquid was removed using a centrifuge and the receiving plate liquid was discarded.
9.90 μL of buffer B was added to the filter plate. After placing the liquid receiving plate under the filter plate, the liquid was removed using a centrifuge, and the receiving plate liquid was discarded, and filter plate was washed for three times in total.
The filter plate was dried overnight.
On the next day, 80 μL of methanol/water (80/20, volume ratio) solution was added to the filter plate.
The plate was shaked for 15 minutes after the filter plate was attached to the membrane.
A new liquid receiving plate was placed under the filter plate, and the filter plate was centrifuged for 5 minutes, and all liquids in the filter plate were filtrated into the receiving plate.
15 μL of internal standard solution was added to each wells in the liquid receiving plate, and the plate was sealed with a membrane.
The content of taurocholic acid in the receiving plate was detected using LC/MS/MS.
Several concentrations were tested in each experiments. The data were analyzed using Prism to generate a concentration-response curve, and IC50 values of the compounds were calculated.

CYP2C9 = biological target: T2, CYP2C9 (Homo sapiens, UniProt P11712); assay: Human liver microsomal cytochrome P450 isozyme inhibition assay, CYP2C9; assay type: in vitro ADME; details: human liver microsomes
T2 construct: Mixed human liver microsomes (HLM) were purchased from Corning Inc; tissue Corning Inc; host or cells: pooled human liver microsomes
Procedure: (§1) Experimental Embodiment 4: Human Liver Microsomal Cytochrome P450 Isozyme Inhibition Assay The purpose of the assay was to evaluate the inhibitory activity of the samples against human liver microsomal cytochrome P450 isozyme (CYP1A2, CYP2C9, CYP2C19, CYP2D6 and CYP3A4) using the 5-in-1 probe substrate of the CYP isozyme. Mixed human liver microsomes (HLM) were purchased from Corning Inc. (Steuben, N.Y., USA) and stored below −80° C. before use. The test compound working solution which has been diluted into serial concentrations was added to an incubation system containing human liver microsomes, probe substrates and circulating system cofactors, and a control containing solvent without the test compound was used as the enzyme activity control (100%). The concentration of the metabolite produced by the probe substrate in the sample was determined using a liquid chromatography-tandem mass spectrometry (LC-MS/MS) method. Nonlinear regression analysis was performed on the average percent activity versus concentration of subjects using SigmaPlot (V.11). The IC50 value was calculated by a three-parameter or four-parameter inverse-logarithmic equation.

CYP2D6 = biological target: T3, CYP2D6 (Homo sapiens, UniProt P10635); assay: Human liver microsomal cytochrome P450 isozyme inhibition assay, CYP2D6; assay type: in vitro ADME; details: human liver microsomes
T3 construct: Mixed human liver microsomes (HLM) were purchased from Corning Inc; tissue Corning Inc; host or cells: pooled human liver microsomes
Procedure: as §1

CYP2C19 = biological target: T4, CYP2C19 (Homo sapiens, UniProt P33261); assay: Human liver microsomal cytochrome P450 isozyme inhibition assay, CYP2C19; assay type: in vitro ADME; details: human liver microsomes
T4 construct: Mixed human liver microsomes (HLM) were purchased from Corning Inc; tissue Corning Inc; host or cells: pooled human liver microsomes
Procedure: as §1

CYP3A4 = biological target: T5, CYP3A4 (Homo sapiens, UniProt P08684); assay: Human liver microsomal cytochrome P450 isozyme inhibition assay, CYP3A4; assay type: in vitro ADME; details: human liver microsomes
T5 construct: Mixed human liver microsomes (HLM) were purchased from Corning Inc; tissue Corning Inc; host or cells: pooled human liver microsomes
Procedure: as §1

[3] = tested on: human liver microsomal cytochrome P450 isozyme (CYP1A2, CYP2C9, CYP2C19, CYP2D6 and CYP3A4); assay: Human liver microsomal cytochrome P450 isozyme inhibition assay, summary over the main isozymes; assay type: in vitro ADME
Procedure: as §1

CYP1A2 = biological target: T6, CYP1A2 (Homo sapiens, UniProt P05177); assay: Human liver microsomal cytochrome P450 isozyme inhibition assay, CYP1A2; assay type: in vitro ADME; details: human liver microsomes
T6 construct: Mixed human liver microsomes (HLM) were purchased from Corning Inc; tissue Corning Inc; host or cells: pooled human liver microsomes
T6 sequence (P05177 1-516): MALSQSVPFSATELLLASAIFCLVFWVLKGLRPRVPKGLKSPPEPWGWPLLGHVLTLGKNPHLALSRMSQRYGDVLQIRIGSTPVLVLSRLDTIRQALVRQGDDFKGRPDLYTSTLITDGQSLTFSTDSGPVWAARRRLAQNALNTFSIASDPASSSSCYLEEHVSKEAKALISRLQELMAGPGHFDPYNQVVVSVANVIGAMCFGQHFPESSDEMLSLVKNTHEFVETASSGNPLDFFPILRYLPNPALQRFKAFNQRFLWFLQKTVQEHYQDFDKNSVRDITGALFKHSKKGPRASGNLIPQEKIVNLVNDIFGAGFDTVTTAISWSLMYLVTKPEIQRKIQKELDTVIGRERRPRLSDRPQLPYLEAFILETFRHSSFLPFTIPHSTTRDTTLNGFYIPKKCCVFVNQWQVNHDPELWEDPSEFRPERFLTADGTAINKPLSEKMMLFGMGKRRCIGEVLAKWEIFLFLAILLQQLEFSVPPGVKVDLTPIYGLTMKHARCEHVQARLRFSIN
Procedure: as §1

[4] = male, dog, plasma, intravenous injection 1 mg/kg

T1 sequence (O95342 whole entry): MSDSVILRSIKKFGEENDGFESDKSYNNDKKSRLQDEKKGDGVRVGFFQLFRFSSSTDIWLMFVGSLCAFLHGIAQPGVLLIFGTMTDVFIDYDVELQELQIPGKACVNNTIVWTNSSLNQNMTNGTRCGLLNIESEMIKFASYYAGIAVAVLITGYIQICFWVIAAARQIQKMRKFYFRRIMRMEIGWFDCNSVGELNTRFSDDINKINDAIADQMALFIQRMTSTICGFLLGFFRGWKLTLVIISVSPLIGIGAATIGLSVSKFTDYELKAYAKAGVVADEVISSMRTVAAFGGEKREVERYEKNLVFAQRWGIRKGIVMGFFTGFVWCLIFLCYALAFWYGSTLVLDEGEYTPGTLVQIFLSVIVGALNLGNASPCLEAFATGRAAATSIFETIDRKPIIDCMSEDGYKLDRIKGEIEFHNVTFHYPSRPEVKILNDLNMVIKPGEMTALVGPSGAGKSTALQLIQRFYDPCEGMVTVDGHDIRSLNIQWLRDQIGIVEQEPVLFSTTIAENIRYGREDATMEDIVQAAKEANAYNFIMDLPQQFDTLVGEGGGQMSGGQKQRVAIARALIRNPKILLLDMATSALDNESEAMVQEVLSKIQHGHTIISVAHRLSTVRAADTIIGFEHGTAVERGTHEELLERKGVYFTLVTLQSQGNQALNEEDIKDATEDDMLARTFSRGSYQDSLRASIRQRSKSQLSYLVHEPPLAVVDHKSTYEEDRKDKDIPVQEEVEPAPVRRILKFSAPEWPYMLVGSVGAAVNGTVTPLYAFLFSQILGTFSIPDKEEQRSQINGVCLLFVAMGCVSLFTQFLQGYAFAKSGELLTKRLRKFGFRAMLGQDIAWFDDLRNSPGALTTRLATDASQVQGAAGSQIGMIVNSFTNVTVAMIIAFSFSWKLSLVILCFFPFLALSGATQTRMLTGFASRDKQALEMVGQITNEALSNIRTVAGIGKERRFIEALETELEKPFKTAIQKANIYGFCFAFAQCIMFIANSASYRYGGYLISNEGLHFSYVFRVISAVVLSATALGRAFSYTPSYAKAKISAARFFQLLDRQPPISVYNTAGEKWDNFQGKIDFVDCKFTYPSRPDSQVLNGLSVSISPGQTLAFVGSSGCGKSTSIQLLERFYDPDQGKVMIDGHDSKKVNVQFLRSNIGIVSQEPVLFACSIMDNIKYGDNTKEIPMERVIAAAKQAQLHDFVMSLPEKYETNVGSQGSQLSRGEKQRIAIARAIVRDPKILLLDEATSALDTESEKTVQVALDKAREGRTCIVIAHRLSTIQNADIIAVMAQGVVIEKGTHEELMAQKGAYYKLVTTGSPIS
T2 sequence (P11712 whole entry): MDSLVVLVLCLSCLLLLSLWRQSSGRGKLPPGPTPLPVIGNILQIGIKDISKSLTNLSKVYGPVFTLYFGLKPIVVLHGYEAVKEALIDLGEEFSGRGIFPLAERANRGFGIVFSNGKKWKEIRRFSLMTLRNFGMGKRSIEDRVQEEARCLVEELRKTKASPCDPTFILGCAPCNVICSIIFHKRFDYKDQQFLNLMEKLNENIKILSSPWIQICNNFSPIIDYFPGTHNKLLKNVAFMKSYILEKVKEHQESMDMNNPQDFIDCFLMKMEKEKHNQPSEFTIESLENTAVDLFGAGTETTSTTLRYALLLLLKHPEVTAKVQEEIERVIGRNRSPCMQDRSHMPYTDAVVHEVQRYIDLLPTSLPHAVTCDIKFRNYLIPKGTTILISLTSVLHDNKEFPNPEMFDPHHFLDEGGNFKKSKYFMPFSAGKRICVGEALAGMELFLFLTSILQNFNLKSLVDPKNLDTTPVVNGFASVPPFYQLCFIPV
T5 sequence (P08684 whole entry): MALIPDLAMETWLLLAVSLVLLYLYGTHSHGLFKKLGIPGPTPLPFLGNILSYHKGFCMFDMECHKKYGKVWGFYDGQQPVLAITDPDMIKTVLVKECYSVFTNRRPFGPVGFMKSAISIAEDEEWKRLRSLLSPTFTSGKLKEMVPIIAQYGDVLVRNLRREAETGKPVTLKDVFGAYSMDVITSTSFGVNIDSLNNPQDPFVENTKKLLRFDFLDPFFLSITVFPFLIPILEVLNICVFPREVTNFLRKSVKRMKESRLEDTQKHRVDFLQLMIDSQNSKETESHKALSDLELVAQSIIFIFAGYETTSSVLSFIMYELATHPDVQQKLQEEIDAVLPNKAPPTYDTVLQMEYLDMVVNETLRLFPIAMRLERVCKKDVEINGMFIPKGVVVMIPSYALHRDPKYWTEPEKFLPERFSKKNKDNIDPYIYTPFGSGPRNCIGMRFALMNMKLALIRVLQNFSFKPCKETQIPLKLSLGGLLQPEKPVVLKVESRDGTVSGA
T4 sequence (P33261 whole entry): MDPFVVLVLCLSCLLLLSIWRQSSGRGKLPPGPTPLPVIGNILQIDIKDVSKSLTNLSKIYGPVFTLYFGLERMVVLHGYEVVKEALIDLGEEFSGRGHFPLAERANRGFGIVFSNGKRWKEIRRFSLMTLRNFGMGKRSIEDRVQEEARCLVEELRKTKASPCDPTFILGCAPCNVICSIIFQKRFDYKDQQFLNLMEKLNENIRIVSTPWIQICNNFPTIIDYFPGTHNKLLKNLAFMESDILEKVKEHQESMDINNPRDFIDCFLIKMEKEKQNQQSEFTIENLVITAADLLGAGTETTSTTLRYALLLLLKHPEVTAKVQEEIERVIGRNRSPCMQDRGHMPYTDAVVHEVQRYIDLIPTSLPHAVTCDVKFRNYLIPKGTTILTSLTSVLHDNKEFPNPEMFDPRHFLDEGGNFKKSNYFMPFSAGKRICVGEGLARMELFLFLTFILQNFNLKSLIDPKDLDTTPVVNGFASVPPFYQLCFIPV
T3 sequence (P10635 whole entry): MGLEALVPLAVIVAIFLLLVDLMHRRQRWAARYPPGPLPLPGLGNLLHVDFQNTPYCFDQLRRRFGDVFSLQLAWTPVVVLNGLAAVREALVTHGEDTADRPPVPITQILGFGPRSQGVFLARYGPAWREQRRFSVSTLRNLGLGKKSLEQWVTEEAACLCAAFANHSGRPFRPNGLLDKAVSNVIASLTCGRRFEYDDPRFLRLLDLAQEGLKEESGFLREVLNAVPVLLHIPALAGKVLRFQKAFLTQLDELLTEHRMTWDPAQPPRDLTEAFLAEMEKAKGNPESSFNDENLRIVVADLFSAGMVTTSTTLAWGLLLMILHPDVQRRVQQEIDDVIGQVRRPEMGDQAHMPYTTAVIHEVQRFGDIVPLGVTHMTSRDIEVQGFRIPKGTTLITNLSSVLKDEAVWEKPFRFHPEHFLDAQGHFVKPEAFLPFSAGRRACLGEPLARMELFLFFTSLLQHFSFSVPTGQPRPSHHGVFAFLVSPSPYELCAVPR

| The area under the plasma concentration time curve ([1]; intravenous injection 1 mg/kg) [µM·h] | bioavailability ([1]; male, beagle, dog, plasma, po, 3 mg/kg, oral administration 3 mg/kg, read-out: Bioavailability F) [%] | half-life [1, 4] [h] | Peak concentration ([1]; oral administration 3 mg/kg) [µM] | Peak time ([1]; oral administration 3 mg/kg) [h] | The area under the plasma concentration time curve ([1]; oral administration 3 mg/kg) [µM·h] | Bioavailability F ([1]; oral administration 3 mg/kg, 3 mg/kg) [%] | IC50 (CYP2C9) [µM] | IC50 (CYP2D6) [µM] | IC50 (CYP2C19) [µM] | IC50 (CYP3A4) [µM] | inhibitory effects on five main isozymes of CYP (in words) [3] | Plasma clearance rate ([1]; intravenous injection 1 mg/kg, 1 mg/kg) [mL/min/kg] | clearance ([1]; male, beagle, dog, plasma, iv, 1 mg/kg, intravenous injection 1 mg/kg, read-out: Plasma clearance rate) [mL/min/kg] | IC50 (CYP1A2) [µM] | Structure (SMILES) | inhibitory effect on the bile salt transport pump (BSEP) (in words) [2] | IC50 ([2]; substrate taurocholic acid, read-out: IC50, inhibitory effect on the bile salt transport pump (BSEP)) [µM] |
| --- | --- | --- | --- | --- | --- | --- | --- | --- | --- | --- | --- | --- | --- | --- | --- | --- | --- |
| 46.94 | > 50 | 2.31 | 16.20 | 0.38 | 73.77 | 52.4 |  |  |  |  |  |  |  |  | NS(=O)(=O)Nc1ncnc(OCCOc2ncc(Br)cn2)c1-c1ccc2c(c1)OCO2 [WX001] |  |  |
| 7.56 |  | 0.86 | 12.75 | 0.38 | 33.40 |  | > 50 | > 50 | > 50 | 18 | very weak | 4.79 | < 5 | 47 | COCCNS(=O)(=O)Nc1ncnc(OCCOc2ncc(Br)cn2)c1-c1ccc2c(c1)OCO2 [WX013] | extremely weak | 43.8 |
